Assay results from ChEMBL document CHEMBL5260810, “Inhibition of bromodomain-containing protein 9 for the prevention of epigenetically-defined drug resistance” (Bioorg Med Chem Lett, 2017).

Assays:
[1] = system: COLO-678; assay: Cytotoxicity against human COLO-678 cells measured after 8 days; type: functional, cell-based; details: COLO-678, 192 h
[2] = molecular target: Bromodomain adjacent to zinc finger domain protein 2B (Homo sapiens, UniProt Q9UIF8); assay: Binding affinity to human partial length BAZ2B (S2054 to S2168 residues) expressed in bacterial expression system by BROMOscan assay
[3] = system: UACC-62; assay: Cytotoxicity against human UACC-62 cells measured after 8 days; type: functional, cell-based; details: UACC-62, 192 h
[4] = Cytotoxicity against human OCI-M2 cells measured after 8 days; type: functional, cell-based; details: OCI-M2, 192 h
[5] = molecular target: Muscarinic acetylcholine receptor M3 (Homo sapiens) (UniProt P20309); assay: Displacement of [3H]4-DAMP from human recombinant M3 receptor at 10 uM after 60 mins by scintillation counting analysis relative to control
Muscarinic acetylcholine receptor M3 (Homo sapiens), sequence (P20309 whole entry, looked up): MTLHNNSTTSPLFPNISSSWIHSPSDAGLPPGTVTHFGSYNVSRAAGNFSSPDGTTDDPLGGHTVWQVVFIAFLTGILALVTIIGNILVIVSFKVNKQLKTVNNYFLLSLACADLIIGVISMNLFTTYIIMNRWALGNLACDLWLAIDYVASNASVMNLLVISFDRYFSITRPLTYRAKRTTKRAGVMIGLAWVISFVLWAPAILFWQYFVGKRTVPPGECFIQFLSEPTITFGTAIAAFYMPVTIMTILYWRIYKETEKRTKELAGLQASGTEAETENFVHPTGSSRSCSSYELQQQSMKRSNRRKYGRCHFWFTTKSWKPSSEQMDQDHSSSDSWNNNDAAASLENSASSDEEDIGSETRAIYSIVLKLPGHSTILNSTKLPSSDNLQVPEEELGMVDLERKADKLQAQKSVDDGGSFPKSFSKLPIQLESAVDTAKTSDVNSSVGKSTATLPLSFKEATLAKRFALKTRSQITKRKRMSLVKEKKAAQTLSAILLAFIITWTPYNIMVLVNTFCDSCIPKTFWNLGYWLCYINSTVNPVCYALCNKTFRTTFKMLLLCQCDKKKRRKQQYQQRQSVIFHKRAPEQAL

[6] = Cytotoxicity against human HT115 cells measured after 8 days; type: functional, cell-based; details: HT115, 192 h
[7] = system: SNU-C1; assay: Cytotoxicity against human SNU-C1 cells measured after 8 days; type: functional, cell-based; details: SNU-C1, 192 h
[8] = Cytotoxicity against human OVTOKO cells measured after 8 days; type: functional, cell-based; details: 192 h
[9] = molecular target: Bromodomain-containing protein 4 (Homo sapiens, UniProt O60885); assay: Displacement of biotinylated small-molecule ligand from recombinant His-tagged BRD4 bromodomain 1 (unknown origin) measured after 10 mins by TR-FRET assay
[10] = system: MDA-MB-436; assay: Cytotoxicity against human MDA-MB-436 cells measured after 8 days; type: functional, cell-based; details: MDA-MB-436, 192 h
[11] = Cytotoxicity against human NCI-H2595 cells measured after 8 days; type: functional, cell-based; details: NCI-H2595, 192 h
[12] = system: EB2; assay: Cytotoxicity against human EB2 cells measured after 8 days; type: functional, cell-based; details: EB2, 192 h
[13] = system: HCC1954; assay: Cytotoxicity against human HCC1954 cells measured after 8 days; type: functional, cell-based; details: HCC1954, 192 h
[14] = molecular target: Misshapen-like kinase 1 (Homo sapiens) (UniProt Q8N4C8); assay: Inhibition of Mink1 (unknown origin) at 1 uM relative to control
[15] = system: SW1573; assay: Cytotoxicity against human SW1573 cells measured after 8 days; type: functional, cell-based; details: SW1573, 192 h
[16] = system: WiDr; assay: Cytotoxicity against human WiDr cells measured after 8 days; type: functional, cell-based; details: 192 h
[17] = molecular target: Bromodomain and WD repeat-containing protein 1 (Homo sapiens, UniProt Q9NSI6); assay: Binding affinity to human partial length WDR9 bromodomain 2 (A1310 to E1430 residues) expressed in bacterial expression system by BROMOscan assay
[18] = Cytotoxicity against human NCI-H1869 cells measured after 8 days; type: functional, cell-based; details: NCI-H1869, 192 h
[19] = system: BT-549; assay: Cytotoxicity against human BT-549 cells measured after 8 days; type: functional, cell-based; details: BT-549, 192 h
[20] = system: SW48; assay: Cytotoxicity against human SW48 cells measured after 8 days; type: functional, cell-based; details: SW48, 192 h
[21] = system: SU-DHL-1; assay: Cytotoxicity against human SU-DHL-1 cells measured after 8 days; type: functional, cell-based; details: SU-DHL-1, 192 h
[22] = molecular target: Bromodomain-containing protein 8 (Homo sapiens, UniProt Q9H0E9); assay: Binding affinity to BRD8 bromodomain 1 (unknown origin) by BROMOscan assay
[23] = system: NCI-H146; assay: Cytotoxicity against human NCI-H146 cells measured after 8 days; type: functional, cell-based; details: NCI-H146, 192 h
[24] = system: NCI-H522; assay: Cytotoxicity against human NCI-H522 cells measured after 8 days; type: functional, cell-based; details: NCI-H522, 192 h
[25] = molecular target: Histamine H2 receptor (Homo sapiens) (UniProt P25021); assay: Displacement of [125I]APT from human recombinant histamine H2 receptor at 10 uM after 120 mins by scintillation counting analysis relative to control
Histamine H2 receptor (Homo sapiens), sequence (P25021 whole entry): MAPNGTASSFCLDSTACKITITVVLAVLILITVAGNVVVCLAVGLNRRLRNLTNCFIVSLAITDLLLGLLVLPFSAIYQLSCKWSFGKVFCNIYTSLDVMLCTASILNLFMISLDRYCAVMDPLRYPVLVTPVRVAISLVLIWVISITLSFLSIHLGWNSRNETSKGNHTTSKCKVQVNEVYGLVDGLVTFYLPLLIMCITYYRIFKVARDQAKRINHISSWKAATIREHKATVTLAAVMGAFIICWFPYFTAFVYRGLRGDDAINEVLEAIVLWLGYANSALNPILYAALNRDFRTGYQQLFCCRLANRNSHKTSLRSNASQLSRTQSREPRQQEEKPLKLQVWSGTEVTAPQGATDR

[26] = system: HDQ-P1; assay: Cytotoxicity against human HDQ-P1 cells measured after 8 days; type: functional, cell-based; details: HDQ-P1, 192 h
[27] = Cytotoxicity against human HCC2279 cells measured after 8 days; type: functional, cell-based; details: HCC2279, 192 h
[28] = molecular target: Proto-oncogene tyrosine-protein kinase Src (Homo sapiens) (UniProt P12931); assay: Inhibition of Src (unknown origin) at 1 uM relative to control
Proto-oncogene tyrosine-protein kinase Src (Homo sapiens), sequence (P12931 2-536 limits assumed): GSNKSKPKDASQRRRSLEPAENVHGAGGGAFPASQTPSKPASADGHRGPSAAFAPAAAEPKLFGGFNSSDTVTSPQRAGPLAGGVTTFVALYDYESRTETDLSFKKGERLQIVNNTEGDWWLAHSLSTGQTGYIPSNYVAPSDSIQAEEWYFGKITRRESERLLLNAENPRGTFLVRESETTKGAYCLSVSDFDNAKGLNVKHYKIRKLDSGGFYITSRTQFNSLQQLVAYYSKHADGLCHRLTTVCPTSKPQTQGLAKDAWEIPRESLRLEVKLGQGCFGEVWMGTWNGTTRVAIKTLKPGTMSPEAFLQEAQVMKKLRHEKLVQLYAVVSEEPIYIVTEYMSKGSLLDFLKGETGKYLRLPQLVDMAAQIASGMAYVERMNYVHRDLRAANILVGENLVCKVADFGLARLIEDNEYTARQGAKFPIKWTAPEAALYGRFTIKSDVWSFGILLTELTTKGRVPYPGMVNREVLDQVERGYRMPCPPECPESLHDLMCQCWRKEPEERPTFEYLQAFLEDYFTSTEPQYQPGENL

[29] = molecular target: cAMP-dependent protein kinase (PKA) (Homo sapiens) (UniProt P22694+P17612+P22612); assay: Inhibition of PKA (unknown origin) at 1 uM relative to control; type: protein assay
[30] = system: PA-1; assay: Cytotoxicity against human PA-1 cells measured after 8 days; type: functional, cell-based; details: PA-1, 192 h
[31] = molecular target: Cyclin-dependent kinase 2/cyclin A (Homo sapiens) (UniProt P24941+P20248+P78396); assay: Inhibition of CDK2/cyclin A (unknown origin) at 1 uM relative to control; type: protein-complex assay
[32] = molecular target: Nucleosome-remodeling factor subunit BPTF (Homo sapiens, UniProt Q12830); assay: Binding affinity to human partial length FALZ (S2791 to H2911 residues) expressed in bacterial expression system by BROMOscan assay
[33] = molecular target: Bromodomain-containing protein 2 (Homo sapiens, UniProt P25440); assay: Binding affinity to human partial length BRD2 bromodomain 2 isoform 1 (E348 to D455 residues) expressed in bacterial expression system by BROMOscan assay
Bromodomain-containing protein 2, sequence (P25440 whole entry, the tested form may be a part, canonical isoform): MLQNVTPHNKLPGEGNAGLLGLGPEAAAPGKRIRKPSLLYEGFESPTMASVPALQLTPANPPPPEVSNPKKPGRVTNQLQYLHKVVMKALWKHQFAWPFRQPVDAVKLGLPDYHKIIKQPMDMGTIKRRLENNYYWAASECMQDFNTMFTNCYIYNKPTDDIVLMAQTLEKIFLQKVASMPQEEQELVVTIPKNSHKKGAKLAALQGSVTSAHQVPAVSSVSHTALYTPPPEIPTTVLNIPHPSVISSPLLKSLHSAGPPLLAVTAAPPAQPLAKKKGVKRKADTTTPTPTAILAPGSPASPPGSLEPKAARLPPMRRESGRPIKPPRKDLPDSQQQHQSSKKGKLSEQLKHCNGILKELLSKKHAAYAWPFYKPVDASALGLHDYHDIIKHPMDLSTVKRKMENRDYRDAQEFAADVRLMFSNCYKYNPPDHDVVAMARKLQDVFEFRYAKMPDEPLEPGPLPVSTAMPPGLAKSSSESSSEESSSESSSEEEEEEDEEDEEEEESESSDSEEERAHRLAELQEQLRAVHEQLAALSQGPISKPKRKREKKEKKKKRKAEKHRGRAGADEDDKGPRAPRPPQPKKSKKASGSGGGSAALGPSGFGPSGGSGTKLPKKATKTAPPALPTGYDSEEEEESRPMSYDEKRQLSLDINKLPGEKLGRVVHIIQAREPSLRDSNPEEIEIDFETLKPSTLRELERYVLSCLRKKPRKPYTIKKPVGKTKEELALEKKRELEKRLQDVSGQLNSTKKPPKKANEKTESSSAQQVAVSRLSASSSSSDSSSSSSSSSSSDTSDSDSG

[34] = Cytotoxicity against human NCI-H322T cells measured after 8 days; type: functional, cell-based; details: 192 h
[35] = species on record: Rattus norvegicus; assay: Displacement of [125I]alpha-dendrotoxin from rat brain voltage-gated K channel at 10 uM after 60 mins by scintillation counting analysis relative to control
[36] = Cytotoxicity against human VMRC-LCD cells measured after 8 days; type: functional, cell-based; details: 192 h
[37] = system: NCI-H1355; assay: Cytotoxicity against human NCI-H1355 cells measured after 8 days; type: functional, cell-based; details: NCI-H1355, 192 h
[38] = system: MCF7; assay: Cytotoxicity against human MCF7 cells measured after 8 days; type: functional, cell-based; details: MCF7, 192 h
[39] = system: Granta-519; assay: Cytotoxicity against human Granta-519 cells measured after 8 days; type: functional, cell-based; details: Granta-519, 192 h
[40] = system: NCI-H1581; assay: Cytotoxicity against human NCI-H1581 cells measured after 8 days; type: functional, cell-based; details: NCI-H1581, 192 h
[41] = system: HT-29; assay: Cytotoxicity against human HT-29 cells measured after 8 days; type: functional, cell-based; details: HT-29, 192 h
[42] = system: Hs-578T; assay: Cytotoxicity against human Hs-578T cells measured after 8 days; type: functional, cell-based; details: 192 h
[43] = molecular target: 5-hydroxytryptamine receptor 4 (Homo sapiens) (UniProt Q13639); assay: Inhibition of human 5HT4e at 10 uM relative to control
5-hydroxytryptamine receptor 4 (Homo sapiens), sequence (Q13639 whole entry): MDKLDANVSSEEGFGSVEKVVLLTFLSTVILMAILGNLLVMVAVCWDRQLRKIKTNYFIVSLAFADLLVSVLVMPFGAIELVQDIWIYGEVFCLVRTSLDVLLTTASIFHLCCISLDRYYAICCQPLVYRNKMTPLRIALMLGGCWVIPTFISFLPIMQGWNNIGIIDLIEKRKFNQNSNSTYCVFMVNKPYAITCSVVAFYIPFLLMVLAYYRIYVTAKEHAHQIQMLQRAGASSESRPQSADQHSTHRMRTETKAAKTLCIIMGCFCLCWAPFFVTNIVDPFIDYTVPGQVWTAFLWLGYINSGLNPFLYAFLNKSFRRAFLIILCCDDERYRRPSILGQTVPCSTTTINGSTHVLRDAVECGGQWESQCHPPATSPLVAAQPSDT

[44] = system: NCI-H2122; assay: Cytotoxicity against human NCI-H2122 cells measured after 8 days; type: functional, cell-based; details: NCI-H2122, 192 h
[45] = molecular target: Chromatin remodeling regulator CECR2 (Homo sapiens, UniProt Q9BXF3); assay: Displacement of biotinylated small-molecule ligand from recombinant His-tagged CECR2 (unknown origin) measured after 10 mins by TR-FRET assay
Chromatin remodeling regulator CECR2, sequence (Q9BXF3 whole entry): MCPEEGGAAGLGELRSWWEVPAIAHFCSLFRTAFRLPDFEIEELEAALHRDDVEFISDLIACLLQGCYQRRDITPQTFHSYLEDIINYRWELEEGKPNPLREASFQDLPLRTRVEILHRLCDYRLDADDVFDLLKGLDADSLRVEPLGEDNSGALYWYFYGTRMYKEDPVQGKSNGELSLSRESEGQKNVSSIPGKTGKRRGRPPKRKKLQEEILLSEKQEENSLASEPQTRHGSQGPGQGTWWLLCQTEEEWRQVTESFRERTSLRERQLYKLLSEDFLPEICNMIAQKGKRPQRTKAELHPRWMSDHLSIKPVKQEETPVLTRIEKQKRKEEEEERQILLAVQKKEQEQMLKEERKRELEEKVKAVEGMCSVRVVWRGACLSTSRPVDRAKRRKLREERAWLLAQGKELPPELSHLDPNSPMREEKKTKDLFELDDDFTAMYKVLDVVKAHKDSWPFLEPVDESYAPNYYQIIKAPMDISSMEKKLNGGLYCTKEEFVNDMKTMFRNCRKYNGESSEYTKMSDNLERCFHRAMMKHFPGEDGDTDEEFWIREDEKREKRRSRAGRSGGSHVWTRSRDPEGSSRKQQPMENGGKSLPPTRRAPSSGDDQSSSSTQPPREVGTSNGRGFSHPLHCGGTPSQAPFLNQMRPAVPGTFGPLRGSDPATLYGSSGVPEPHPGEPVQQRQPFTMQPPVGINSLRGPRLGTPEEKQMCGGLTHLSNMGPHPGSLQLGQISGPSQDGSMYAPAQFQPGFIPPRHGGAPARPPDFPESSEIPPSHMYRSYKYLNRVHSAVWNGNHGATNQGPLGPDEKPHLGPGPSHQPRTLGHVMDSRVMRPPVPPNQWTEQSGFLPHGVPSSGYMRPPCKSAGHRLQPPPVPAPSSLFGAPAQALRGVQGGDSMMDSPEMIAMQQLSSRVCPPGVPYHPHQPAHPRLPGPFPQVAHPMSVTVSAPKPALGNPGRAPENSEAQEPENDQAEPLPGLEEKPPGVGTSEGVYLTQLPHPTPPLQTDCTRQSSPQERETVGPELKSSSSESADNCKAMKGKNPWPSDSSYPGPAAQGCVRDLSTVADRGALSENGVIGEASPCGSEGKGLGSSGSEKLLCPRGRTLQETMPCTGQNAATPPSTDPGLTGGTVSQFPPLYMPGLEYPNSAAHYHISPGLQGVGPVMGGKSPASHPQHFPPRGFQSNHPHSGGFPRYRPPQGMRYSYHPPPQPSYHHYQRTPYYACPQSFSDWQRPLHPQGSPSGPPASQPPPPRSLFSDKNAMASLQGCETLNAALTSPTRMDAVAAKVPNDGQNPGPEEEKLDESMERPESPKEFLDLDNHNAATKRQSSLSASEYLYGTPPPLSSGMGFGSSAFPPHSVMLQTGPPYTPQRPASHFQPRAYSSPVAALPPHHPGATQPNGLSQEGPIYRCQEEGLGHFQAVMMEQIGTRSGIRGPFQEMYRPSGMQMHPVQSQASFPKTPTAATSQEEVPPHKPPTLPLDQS

[46] = system: U-937; assay: Cytotoxicity against human U-937 cells measured after 8 days; type: functional, cell-based; details: U-937, 192 h

With `C/C=C/Cn1cc(-c2cc(OC)c(C(=O)N3CCOCC3)cc2OC)c2cc(C)[nH]c2c1=O` the IC50 [1] was 2 µM, the Kd [2] was > 10 µM and the IC50 [3] was 2 µM. The IC50 [4] was 2 µM, the Activity [5] was 3% and the IC50 [6] was 2 µM. The IC50 [7] was 2 µM, the IC50 [8] was 2 µM and the IC50 [9] was > 20 µM. The IC50 [10] was 2 µM, the IC50 [11] was 2 µM and the IC50 [12] was 2 µM. For the same compound, the IC50 [13] was 2 µM, the inhibition [14] was 8% and the IC50 [15] was 2 µM. The IC50 [16] was 2 µM, the Kd [17] was > 5 µM and the IC50 [18] was 2 µM. The IC50 [19] was 2 µM, the IC50 [20] was 2 µM and the IC50 [21] was 2 µM. The Kd [22] was > 10 µM, the IC50 [23] was 2 µM and the IC50 [24] was 2 µM. The Activity [25] was -5%, the IC50 [26] was 2 µM and the IC50 [27] was 2 µM. The inhibition [28] was 3.5%, the inhibition [29] was 6% and the IC50 [30] was 2 µM. The inhibition [31] was 0%, the Kd [32] was > 10 µM and the Kd [33] was > 10 µM. It also gave an IC50 [34] of 2 µM, an Activity [35] of 2% and an IC50 [36] of 2 µM. It also gave an IC50 [37] of 2 µM, an IC50 [38] of 1.34 µM and an IC50 [39] of 2 µM. For the same compound, the IC50 [40] was 2 µM, the IC50 [41] was 2 µM and the IC50 [42] was 2 µM. The inhibition [43] was -8%, the IC50 [44] was 2 µM and the IC50 [45] was 2.4 µM. For the same compound, the IC50 [46] was 2 µM.
With `C/C=C/Cn1cc(-c2ccc(C(C)(C)O)cc2OC)c2cc[nH]c2c1=O` the IC50 [1] was 20 µM, the Kd [2] was > 10 µM and the IC50 [3] was 20 µM. The IC50 [4] was 20 µM, the Activity [5] was 6% and the IC50 [6] was 20 µM. It also gave an IC50 [7] of 20 µM, an IC50 [8] of 20 µM and an IC50 [9] of 5.1 µM. For the same compound, the IC50 [10] was 20 µM, the IC50 [11] was 20 µM and the IC50 [12] was 20 µM. The IC50 [13] was 20 µM, the inhibition [14] was 18% and the IC50 [15] was 20 µM. For the same compound, the IC50 [16] was 20 µM, the Kd [17] was > 10 µM and the IC50 [18] was 20 µM. For the same compound, the IC50 [19] was 12.2 µM, the IC50 [20] was 20 µM and the IC50 [21] was 20 µM. The Kd [22] was > 10 µM, the IC50 [23] was 20 µM and the IC50 [24] was 20 µM. The Activity [25] was 1%, the IC50 [26] was 20 µM and the IC50 [27] was 20 µM. The inhibition [28] was 4.5%, the inhibition [29] was 3% and the IC50 [30] was 16.4 µM. For the same compound, the inhibition [31] was 1%, the Kd [32] was > 10 µM and the Kd [33] was 3.3 µM. It also gave an IC50 [34] of 20 µM, an Activity [35] of -1% and an IC50 [36] of 20 µM. The IC50 [37] was 20 µM, the IC50 [38] was 20 µM and the IC50 [39] was 20 µM. The IC50 [40] was 20 µM, the IC50 [41] was 20 µM and the IC50 [42] was 20 µM. The inhibition [43] was -1%, the IC50 [44] was 20 µM and the IC50 [45] was > 20 µM. The IC50 [46] was 20 µM.
In the case of `C/C=C/Cn1cc(-c2ccc(C(=O)N3CCOCC3)cc2)c2cc[nH]c2c1=O`, the IC50 [1] is reported as 20 µM, the Kd [2] is reported as > 10 µM and the IC50 [3] is reported as 20 µM. The IC50 [4] was 5.21 µM, the Activity [5] was -13% and the IC50 [6] was 20 µM. It also gave an IC50 [7] of 20 µM, an IC50 [8] of 17.7 µM and an IC50 [9] of 3.4 µM. The IC50 [10] was 20 µM, the IC50 [11] was 20 µM and the IC50 [12] was 20 µM. It also gave an IC50 [13] of 20 µM, an inhibition [14] of 1.5% and an IC50 [15] of 20 µM. The IC50 [16] was 20 µM, the Kd [17] was 27 µM and the IC50 [18] was 20 µM. It also gave an IC50 [19] of 20 µM, an IC50 [20] of 20 µM and an IC50 [21] of 20 µM. The Kd [22] was > 10 µM, the IC50 [23] was 20 µM and the IC50 [24] was 20 µM. It also gave an Activity [25] of 6%, an IC50 [26] of 20 µM and an IC50 [27] of 20 µM. For the same compound, the inhibition [28] was 0.9%, the inhibition [29] was -6.8% and the IC50 [30] was 20 µM. For the same compound, the inhibition [31] was 1.6%, the Kd [32] was > 10 µM and the Kd [33] was 4.3 µM. For the same compound, the IC50 [34] was 20 µM, the Activity [35] was 0% and the IC50 [36] was 20 µM. For the same compound, the IC50 [37] was 20 µM, the IC50 [38] was 20 µM and the IC50 [39] was 20 µM. The IC50 [40] was 20 µM, the IC50 [41] was 20 µM and the IC50 [42] was 20 µM. For the same compound, the inhibition [43] was 2%, the IC50 [44] was 20 µM and the IC50 [45] was 2.9 µM. It also gave an IC50 [46] of 20 µM.
For `C/C=C/Cn1cc(-c2cc(OC)c(C(C)(C)O)cc2OC)c2cc(C)[nH]c2c1=O`, the Kd [2] was > 10 µM, the IC50 [9] was > 20 µM and the Kd [17] was > 10 µM. The Kd [22] was > 10 µM, the Kd [32] was > 10 µM and the Kd [33] was > 10 µM. The IC50 [45] was 4.3 µM.
